Test results reported in patent US20200008395A1, “METHOD OF USING HUMAN EXCREMENT AND SECRETIONS FOR EARLY DETECTION OF PARKINSON'S DISEASE” (NEURRX, SPC, priority 2017, published 2020).

Columns and labels:
[1] = supplements / pharmaceuticals said to have been shown to slow or reduce progression; cited from earlier work
[2] = Regression model of nutritional supplements and PD progression (PRO-PD score); type: in vivo, human; conditions: positive report of consistently using supplement over the previous 6 months, adjusted for years since diagnosis; for Mean change in PRO-PD score (SE)*: age, and gender; for Mean change in PRO-PD score (SE)**: age, gender, and income
Description: When the diagnosis comes 10-15 years or more into the disease, the contribution or effectiveness of a disease-modifying therapy is diminished. Conversely, early detection and intervention by disease-modifying therapies can reduce rate of PD progression or delay disease onset. […] As used herein, PRO-PD is the Patient Reported Outcomes in Parkinson's Disease rating scale, which is used to describe PD disease severity among individuals with a clinical diagnosis of PD.
Certain foods and supplements are known to be associated with different rates of PD progression.

| Compound | Effect on PD progression (statement in words) [1] | Mean change in PRO-PD score (SE)* [2] | Mean change in PRO-PD score (SE)** [2] |
| --- | --- | --- | --- |
| C[C@]12CC[C@H](O)CC1=CC[C@@H]1[C@@H]2CC[C@]2(C)C(=O)CC[C@@H]12 [DHEA, dehydroepiandrosterone] | slow the progression of PD |  |  |
| CN1c2c(nc(N)[nH]c2=O)NCC1CNc1ccc(C(=O)N[C@@H](CCC(=O)O)C(=O)O)cc1 (stereo partly drawn) [5-Methyltetrahydrofolate (5-MTHF), 5-Methyltetrahydrofolate] |  | −17.1 | −25.1 |
| N[C@@H](Cc1ccc(O)c(O)c1)C(=O)O [levodopa] | reduce the rate of progression |  |  |
| N[C@@H](CCC(=O)N[C@@H](CS)C(=O)NCC(=O)O)C(=O)O [Glutathione, oral, glutathione] | slow the progression of PD |  |  |
| COC1=C(OC)C(=O)C(C/C=C(\C)CC/C=C(\C)CC/C=C(\C)CC/C=C(\C)CC/C=C(\C)CC/C=C(\C)CC/C=C(\C)CC/C=C(\C)CC/C=C(\C)CCC=C(C)C)=C(C)C1=O [CoQ10, coenzyme Q-10] | slow the progression of PD |  |  |
| C#CCN(C)[C@H](C)Cc1ccccc1 [selegeline] | reduce the rate of progression |  |  |
| NC(=O)C1=CN([C@@H]2O[C@H](COP(=O)(O)OP(=O)(O)OC[C@H]3O[C@@H](n4cnc5c(N)ncnc54)[C@H](O)[C@@H]3O)[C@@H](O)[C@H]2O)C=CC1 [NADH] |  | −9.7 | −25.2 |
| Vitamin D |  | −26.1 | −3.6 |
| O=C1CC[C@@]2(O)[C@H]3Cc4ccc(O)c5c4[C@@]2(CCN3CC2CC2)[C@H]1O5 [Low-dose naltrexone, naltrexone] | reduce the rate of progression |  |  |
| [Ca+2] [Calcium] |  | −6.2 | 12.5 |
| C#CCN[C@@H]1CCc2ccccc21 [rasagiline] | reduce the rate of progression |  |  |
